Measurements taken from patent publication US11058660B2, “External wound-healing agent, and external wound-healing material” (Mitsui Chemicals, Inc., priority 2014, dated 2021).

Columns and labels:
[1] = system: burn injury site on the back of a rat; assay: Rat burn injury healing test with nonwoven fabrics; format: in vivo; conditions: nonwoven fabric test
Protocol: In this animal testing, the nonwoven fabric A or the nonwoven fabric B was applied to a burn injury site on the back of a rat, and the healing effects by the application of the nonwoven fabric A and B were evaluated. The details of the experiment will be described below.
The back of a rat was depilated. In the depilated portion, hot water at 80° C. was brought into contact for 5 seconds to form two burn injury sites. To the burn injury sites, the nonwoven fabric A (about 2 cm×2 cm) and the nonwoven fabric B (about 2 cm×2 cm) were applied, and occlusive patching was performed using non-permeable surgical tape (Blenderm, 3M) and adhesive flexible bandage (Silkytex 3, ALCARE Co., Ltd). On days 3, 6, and 9 after the application of the nonwoven fabrics A and B, the nonwoven fabrics were removed, and the healing effect was evaluated. […]
Two burn injury sites were each formed on 15 rats, and then the nonwoven fabric A and the nonwoven fabric B were applied to each two burn injury sites. […] On day 3, the nonwoven fabrics A and B on the rats of test group A were removed, and the skin conditions were assessed. On day 6, the nonwoven fabrics A and B on the rats of test group B were removed, and the skin conditions were assessed, and on day 9, the nonwoven fabrics A and B on the rats of test group C were removed, and the skin conditions were assessed. […]

[2] = system: burn injury sites on the backs of rats; assay: Rat burn injury healing test with films; format: in vivo; conditions: film test
Protocol: The skin conditions of the rats were evaluated according to the following scores (visual inspection).
0: asymptomatic, 1: slight, 2: mild, 3: moderate, 4: crusting, 5: necrosed
The test results were expressed as average values±standard errors and analyzed using EXSUS (Version 8.0, CAC EXICARE Corporation) and SAS (Version 9.3, SAS Institute Japan Ltd). For the scores of the skin conditions, the Wilcoxon test was conducted at a 2-sided significance level of 5%.
In this animal testing, the films 1 to 3 were applied to burn injury sites on the backs of rats, and the healing effects by the application of the films 1 to 3 were evaluated. For comparison, a burn injury site was left untreated, and the development of the untreated site was observed. The details of the experiment will be described below.
The back of a rat was depilated. In the depilated portion, hot water at 80° C. was brought into contact for 5 seconds to form two burn injury sites. […] On days 3, 6, and 9 after the application of the films 1 and 2, the films were removed, and the healing effect was evaluated.
Furthermore, two burn injury sites were formed on the back of another rat in the same manner as described above. […] On days 3, 6, and 9 after the application of the film 3, the film was removed, and the healing effect was evaluated. […]

CCCCCCCCCCCCCCCCCC(=O)OCC(O)CO (centres unmarked) [glycerol alkyl ester, glycerol stearate]
healing effect on skin having a burn injury (conclusion) [1]: has an external wound-healing effect | healing effect on skin having a burn injury (conclusion) [2]: has an external wound-healing effect
